Test results: ChEMBL document CHEMBL4368865, “Synthesis, characterization and cytotoxic activity evaluation of ginsengdiol oxidation and nitrogen hybrid derivatives” (Medchemcomm, 2018)
pIC50: −log10 of the molar value.

Assays:
[1] = Cytotoxicity against human 8901 cells assessed as inhibition of cell proliferation after 48 hrs by MTT assay; assay type: functional, cell-based
HeLa [2] = test: Cytotoxicity against human HeLa cells assessed as inhibition of cell proliferation after 48 hrs by MTT assay; assay type: functional, cell-based
[3] = Cytotoxicity against human IOSE-144 cells assessed as inhibition of cell proliferation after 48 hrs by MTT assay; assay type: cell-based; details: IOSE-144, 48 h
U-87 MG = test: Cytotoxicity against human U87 cells assessed as inhibition of cell proliferation after 48 hrs by MTT assay; assay type: functional, cell-based, U-87MG ATCC
A549 [4] = test: Cytotoxicity against human A549 cells assessed as inhibition of cell proliferation after 48 hrs by MTT assay; assay type: functional, cell-based; details: A549, 48 h
MCF7 = test: cells; assay type: functional, cell-based; details: Homo sapiens, MCF7, 48 h
Description: Cytotoxicity against human MCF7 cells assessed as inhibition of cell proliferation after 48 hrs by MTT assay

A549 [5] = test: Potency index, ratio of 5-fluorouracil IC50 to test compound IC50 for human A549 cells; assay type: functional
HeLa [6] = test: Potency index, ratio of 5-fluorouracil IC50 to test compound IC50 for human HeLa cells; assay type: functional

| SMILES | pIC50 [1] | pIC50 (HeLa [2]) | pIC50 [3] | pIC50 (U-87 MG) | pIC50 (A549 [4]) | pIC50 (MCF7) | Ratio IC50 (A549 [5]) | Ratio IC50 (HeLa [6]) |
| --- | --- | --- | --- | --- | --- | --- | --- | --- |
| CC(C)(O)CCC[C@@](C)(O)[C@H]1CC[C@]2(C)[C@@H]1[C@H](O)C[C@@H]1[C@@]3(C)CC[C@H](O)C(C)(C)[C@@H]3CC[C@]12C | 4.33 | 4.71 | < 4.00 | 4.60 | 4.55 | – | – | – |
| COC(C)(C)CCC[C@@](C)(O)[C@H]1CC[C@]2(C)[C@@H]1[C@H](O)C[C@@H]1[C@@]3(C)CC[C@H](O)C(C)(C)[C@@H]3CC[C@]12C | 4.41 | 4.53 | < 4.00 | 4.71 | 4.53 | 4.35 | – | – |
| CC(C)(O)CCC[C@@](C)(O)[C@H]1CC[C@]2(C)[C@@H]1C(=O)C[C@@H]1[C@@]3(C)CCC(=O)C(C)(C)[C@@H]3CC[C@]12C | < 4.00 | < 4.00 | < 4.00 | < 4.00 | 4.05 | 4.19 | – | – |
| CC(C)(O)CCC[C@@](C)(O)[C@H]1CC[C@]2(C)[C@@H]1[C@H](O)C[C@@H]1[C@@](C)(CC(=O)O)[C@H](C(C)(C)C(=O)O)CC[C@]12C | < 4.00 | < 4.00 | < 4.00 | < 4.00 | < 4.00 | < 4.00 | – | – |
| CC1(C)CCC[C@](C)([C@H]2CC[C@]3(C)[C@@H]2[C@H](O)C[C@@H]2[C@@]4(C)Cc5cnoc5C(C)(C)[C@@H]4CC[C@]23C)O1 | < 4.00 | < 4.00 | < 4.00 | < 4.00 | 4.17 | < 4.00 | – | – |
| CC(C)(O)CCC[C@@](C)(O)[C@H]1CC[C@]2(C)[C@@H]1[C@H](O)C[C@@H]1[C@@]3(C)Cc4nccnc4C(C)(C)[C@@H]3CC[C@]12C | 4.88 | < 4.00 | < 4.00 | 4.42 | 5.05 | 4.75 | 2.6 | – |
| COC(C)(C)CCC[C@@](C)(O)[C@H]1CC[C@]2(C)[C@@H]1[C@H](O)C[C@@H]1[C@@]3(C)C=C(O)C(=O)C(C)(C)[C@@H]3CC[C@]12C | 4.59 | 4.41 | < 4.00 | 4.68 | 4.67 | 4.45 | – | – |
| CC(C)(O)CCC[C@@](C)(O)[C@H]1CC[C@]2(C)[C@@H]1[C@H](O)C[C@@H]1[C@@]3(C)C=C(O)C(=O)C(C)(C)[C@@H]3CC[C@]12C | 4.06 | 4.29 | < 4.00 | 4.34 | 4.61 | 4.34 | – | – |
| COC(C)(C)CCC[C@@](C)(O)[C@H]1CC[C@]2(C)[C@@H]1[C@H](O)C[C@@H]1[C@@](C)(CC(=O)O)[C@H](C(C)(C)C=O)CC[C@]12C | < 4.00 | < 4.00 | < 4.00 | < 4.00 | 4.07 | < 4.00 | – | – |
| CC1(C)CCC[C@](C)([C@H]2CC[C@]3(C)[C@@H]2[C@H](O)C[C@@H]2[C@@]4(C)Cc5c([nH]c6ccccc56)C(C)(C)[C@@H]4CC[C@]23C)O1 | < 4.00 | < 4.00 | < 4.00 | < 4.00 | < 4.00 | < 4.00 | – | – |
| COC(C)(C)CCC[C@@](C)(O)[C@H]1CC[C@]2(C)[C@@H]1C(=O)C[C@@H]1[C@@]3(C)CC[C@H](O)C(C)(C)[C@@H]3CC[C@]12C | 4.09 | 4.74 | < 4.00 | 4.48 | 4.43 | 4.35 | – | – |
| COC(C)(C)CCC[C@@](C)(O)[C@H]1CC[C@]2(C)[C@@H]1C(=O)C[C@@H]1[C@@]3(C)CCC(=O)C(C)(C)[C@@H]3CC[C@]12C | < 4.00 | < 4.00 | < 4.00 | < 4.00 | < 4.00 | 4.01 | – | – |
| CC1(C)CCC[C@](C)([C@H]2CC[C@]3(C)[C@@H]2[C@H](O)C[C@@H]2[C@@]4(C)Cc5nc6ccccc6nc5C(C)(C)[C@@H]4CC[C@]23C)O1 | < 4.00 | < 4.00 | < 4.00 | < 4.00 | < 4.00 | < 4.00 | – | – |
| CC(C)(O)CCC[C@@](C)(O)[C@H]1CC[C@]2(C)[C@@H]1C(=O)C[C@@H]1[C@@]3(C)Cc4nccnc4C(C)(C)[C@@H]3CC[C@]12C | < 4.00 | < 4.00 | < 4.00 | < 4.00 | 4.71 | 4.41 | – | – |
| CC1(C)CCC[C@@](C)(O)[C@H]2CC[C@]3(C)[C@@H]2[C@@H](C[C@@H]2[C@@]4(C)CCC(=O)C(C)(C)[C@@H]4CC[C@]23C)O1 | < 4.00 | < 4.00 | < 4.00 | 4.12 | 4.06 | 4.04 | – | – |
| CC1(C)CCC[C@](C)([C@H]2CC[C@]3(C)[C@@H]2[C@H](O)C[C@@H]2[C@@]4(C)Cc5nccnc5C(C)(C)[C@@H]4CC[C@]23C)O1 | < 4.00 | < 4.00 | < 4.00 | < 4.00 | < 4.00 | < 4.00 | – | – |
| CC1(C)CCC[C@](C)([C@H]2CC[C@]3(C)[C@@H]2[C@H](O)C[C@@H]2[C@@](C)(CC(=O)O)[C@H](C(C)(C)C=O)CC[C@]23C)O1 | < 4.00 | < 4.00 | < 4.00 | < 4.00 | < 4.00 | < 4.00 | – | – |
| Cc1ncc2c(n1)C(C)(C)[C@@H]1CC[C@]3(C)[C@H](C[C@@H](O)[C@@H]4[C@@H]([C@@]5(C)CCCC(C)(C)O5)CC[C@]43C)[C@@]1(C)C2 | < 4.00 | < 4.00 | < 4.00 | 4.06 | < 4.00 | 4.08 | – | – |
| COC(C)(C)CCC[C@@](C)(O)[C@H]1CC[C@]2(C)[C@@H]1[C@H](O)C[C@@H]1[C@@]3(C)CCC(=O)C(C)(C)[C@@H]3CC[C@]12C | 4.10 | < 4.00 | < 4.00 | < 4.00 | 4.40 | 4.30 | – | – |
| CC(C)(O)CCC[C@@](C)(O)[C@H]1CC[C@]2(C)[C@@H]1[C@H](O)C[C@@H]1[C@@]3(C)CCC(=O)C(C)(C)[C@@H]3CC[C@]12C | < 4.00 | < 4.00 | < 4.00 | < 4.00 | 4.59 | 4.18 | – | – |
| CC1(C)CCC[C@](C)([C@H]2CC[C@]3(C)[C@@H]2[C@H](O)C[C@@H]2[C@@]4(C)CC(C=O)C(=O)C(C)(C)[C@@H]4CC[C@]23C)O1 (some centres undefined) | 4.52 | 4.50 | < 4.00 | 4.51 | 4.73 | 4.55 | – | – |
| CC1(C)CCC[C@](C)([C@H]2CC[C@]3(C)[C@@H]2[C@H](O)C[C@@H]2[C@@]4(C)Cc5cn[nH]c5C(C)(C)[C@@H]4CC[C@]23C)O1 | 4.87 | 4.93 | < 4.00 | 4.58 | 5.02 | 4.72 | – | 2.5 |
| CC1(C)CCC[C@](C)([C@H]2CC[C@]3(C)[C@@H]2[C@H](O)C[C@@H]2[C@@]4(C)CC(C#N)=C(O)C(C)(C)[C@@H]4CC[C@]23C)O1 | 4.59 | 4.90 | < 4.00 | 4.38 | 4.89 | 4.53 | – | – |
| CC(C)(O)CCC[C@@](C)(O)[C@H]1CC[C@]2(C)[C@@H]1C(=O)C[C@@H]1[C@@]3(C)CC[C@H](O)C(C)(C)[C@@H]3CC[C@]12C | 4.18 | < 4.00 | < 4.00 | < 4.00 | 4.30 | < 4.00 | – | – |
| CC1(C)CCC[C@](C)([C@H]2CC[C@]3(C)[C@@H]2[C@H](O)C[C@@H]2[C@@]4(C)Cc5cnc(N)nc5C(C)(C)[C@@H]4CC[C@]23C)O1 | 4.34 | 4.16 | < 4.00 | 4.08 | 4.57 | 4.55 | – | – |
| CC1(C)CCC[C@](C)([C@H]2CC[C@]3(C)[C@@H]2[C@H](O)C[C@@H]2[C@@]4(C)CC/C(=N\O)C(C)(C)[C@@H]4CC[C@]23C)O1 | < 4.00 | < 4.00 | < 4.00 | < 4.00 | < 4.00 | < 4.00 | – | – |
| CC1(C)CCC[C@](C)([C@H]2CC[C@]3(C)[C@@H]2[C@H](O)C[C@@H]2[C@@]4(C)C=C(O)C(=O)C(C)(C)[C@@H]4CC[C@]23C)O1 | 4.30 | 4.60 | < 4.00 | 4.70 | 4.40 | 4.63 | – | – |
| CC1(C)CCC[C@](C)([C@H]2CC[C@]3(C)[C@@H]2[C@H](O)C[C@@H]2[C@@]4(C)CCC(=O)C(C)(C)[C@@H]4CC[C@]23C)O1 | < 4.00 | 4.18 | < 4.00 | 4.05 | < 4.00 | 4.11 | – | – |
| O=c1[nH]cc(F)c(=O)[nH]1 [FLUOROURACIL] | 4.48 | 4.55 | 4.46 | 4.66 | – | – | – | – |
| CC1(C)CCC[C@](C)([C@H]2CC[C@]3(C)[C@@H]2[C@H](O)C[C@@H]2[C@@]4(C)CC[C@H](O)C(C)(C)[C@@H]4CC[C@]23C)O1 [PANAXADIOL] | < 4.00 | < 4.00 | < 4.00 | < 4.00 | 4.35 | 4.28 | – | – |
